Assays:
[1] = biological target: T1, Tyrosine-protein kinase ABL1 (Homo sapiens, UniProt P00519); assay: Radio ABL1 (64-515) Assay: For determination of ABL kinase activity, the radiometric filter-binding assay was used. The assay was performed by mixing 10 uL of the compound pre-diluted with 10 uL of ATP (20 uM ATP with 0.1 uCi [γ-33P]-ATP) with the phospho-acceptor peptide poly[Ala6Glu2LysHBr5Tyr1]=polyAEKY) in 20 mM Tris/HCl pH 7.5, 1 mM DTT, 10 mM MgCl2, 0.01 mM Na3VO4, 50 mM NaCl. 10 uL of …
[2] = biological target: T1, Tyrosine-protein kinase ABL1; assay: Caliper ABL : The assay plates were prepared by addition of 50 nL per well of compound solution in 90% DMSO. The kinase reactions were started by stepwise addition of 4.5 uL per well of peptide/ATP-solution (50 mM HEPES, pH 7.5, 1 mM DTT, 0.02% BSA, 0.6% DMSO, 10 mM beta-glycerophosphate, and 10 uM sodium orthovanadate, 20 mM MgCl2, 2 mM MnCl2, 4 uM ATP, 4 uM peptide (FITC-Ahx-EAIYAAPFAKKK-NH2)) …

T1 sequence (P00519 whole entry): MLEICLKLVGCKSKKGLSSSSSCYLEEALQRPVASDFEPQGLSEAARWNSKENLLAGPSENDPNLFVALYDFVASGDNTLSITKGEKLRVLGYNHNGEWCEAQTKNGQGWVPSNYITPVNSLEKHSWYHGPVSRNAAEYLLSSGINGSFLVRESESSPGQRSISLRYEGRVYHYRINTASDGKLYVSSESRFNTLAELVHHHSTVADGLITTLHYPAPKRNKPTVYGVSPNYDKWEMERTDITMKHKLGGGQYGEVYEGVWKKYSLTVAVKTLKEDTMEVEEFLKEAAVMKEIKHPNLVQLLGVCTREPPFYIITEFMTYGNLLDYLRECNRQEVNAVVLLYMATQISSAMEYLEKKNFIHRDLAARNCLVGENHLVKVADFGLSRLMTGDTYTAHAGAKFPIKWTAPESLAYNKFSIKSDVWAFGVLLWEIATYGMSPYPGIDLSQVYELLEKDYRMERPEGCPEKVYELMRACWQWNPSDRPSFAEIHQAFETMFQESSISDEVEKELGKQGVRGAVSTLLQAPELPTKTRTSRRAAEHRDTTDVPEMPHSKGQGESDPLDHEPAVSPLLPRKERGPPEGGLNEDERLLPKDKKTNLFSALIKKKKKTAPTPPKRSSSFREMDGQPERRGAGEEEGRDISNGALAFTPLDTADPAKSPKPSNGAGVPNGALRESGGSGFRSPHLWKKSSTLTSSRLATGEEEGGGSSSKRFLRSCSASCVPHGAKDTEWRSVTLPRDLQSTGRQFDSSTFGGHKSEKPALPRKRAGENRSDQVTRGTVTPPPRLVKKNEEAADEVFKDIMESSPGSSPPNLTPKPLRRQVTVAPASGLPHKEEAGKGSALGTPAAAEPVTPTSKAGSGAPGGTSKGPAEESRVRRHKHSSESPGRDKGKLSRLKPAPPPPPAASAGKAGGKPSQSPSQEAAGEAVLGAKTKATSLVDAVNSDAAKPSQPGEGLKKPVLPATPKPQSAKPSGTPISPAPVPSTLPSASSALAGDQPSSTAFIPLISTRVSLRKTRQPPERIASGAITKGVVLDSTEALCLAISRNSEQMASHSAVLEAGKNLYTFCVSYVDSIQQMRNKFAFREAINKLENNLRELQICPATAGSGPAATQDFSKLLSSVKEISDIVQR

| IC50 [1] | IC50 [2] | SMILES |
| --- | --- | --- |
| 7 nM | – | Cc1ccc(-c2cc(C(=O)Nc3ccc(OC(F)(F)F)cc3)cnc2N2CC[C@H](N)C2)cn1 |
| 6.3 nM | 0.6 nM | O=C(Nc1ccc(OC(F)(F)F)cc1)c1cnc(N2CC[C@H](CO)C2)c(-c2cncc(F)c2)c1 |

From ChEMBL document CHEMBL3886595, “Compounds and compositions for inhibiting the activity of ABL1, ABL2 and BCR-ABL1” (2016)
